According to the supplement of paper PMC11061612:

Key:
Test in all cases: combination Emax (second highest fraction inhibited in the dose matrix, 72 h); higher = more inhibition; extreme values may be limits of the assay
[1] = tested on: MIA-PaCa-2 (Pancreatic Carcinoma)
Outline: (§1)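 Cell lines grown in DMEM/F12 or RPMI with 10% FBS were plated in 1536-well plates and held 24 hours at 37°C, 5% CO2 before 72 hours of exposure to two-drug dose matrices, with DMSO typically at 0.2%. CellTiter-Glo 2.0 luminescence gave viability, which was converted to inhibition. Vehicle wells were set to 0 and blank wells to 1. Combination Emax is the second-highest inhibition in the matrix, and Bliss excess is the observed combination effect minus the expected EA + EB − EA·EB, where EA and EB are the single-agent effects.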

[2] = tested on: SCC-15 (Oral Cavity Carcinoma)
Outline: as §1

[3] = tested on: RF-48 (B-Cell Non-Hodgkin's Lymphoma)
Outline: as §1

EW-24 (Ewing's Sarcoma) = tested on: EW-24 (Ewing's Sarcoma)
Outline: as §1

[4] = tested on: C-4-I (Cervical Carcinoma)
Outline: as §1

[5] = tested on: SW13 (Other Solid Carcinomas)
Outline: as §1

[6] = tested on: BT-549 (Breast Carcinoma)
Outline: as §1

NB69 (Neuroblastoma) = tested on: NB69 (Neuroblastoma)
Outline: as §1

[7] = tested on: EoL-1-cell (Acute Myeloid Leukemia)
Outline: as §1

YH-13 (Glioblastoma) = tested on: YH-13 (Glioblastoma)
Outline: as §1

[8] = tested on: KARPAS-299 (T-Cell Non-Hodgkin's Lymphoma)
Outline: as §1

D-263MG (Glioblastoma) = tested on: D-263MG (Glioblastoma)
Outline: as §1

PWR-1E (Non-Cancerous) = tested on: PWR-1E (Non-Cancerous)
Outline: as §1

[9] = tested on: PANC-04-03 (Pancreatic Carcinoma)
Outline: as §1

[10] = tested on: NEC8 (Other Solid Carcinomas)
Outline: as §1

[11] = tested on: HOP-62 (Lung Adenocarcinoma)
Outline: as §1

[12] = tested on: KMOE-2 (Acute Myeloid Leukemia)
Outline: as §1

[13] = tested on: Ca9-22 (Head and Neck Carcinoma)
Outline: as §1

[14] = tested on: VA-ES-BJ (Other Solid Carcinomas)
Outline: as §1

[15] = tested on: EFM-19 (Breast Carcinoma)
Outline: as §1

Structure (SMILES) | combination Emax [1] | combination Emax [2] | combination Emax [3] | combination Emax (EW-24 (Ewing's Sarcoma)) | combination Emax [4] | combination Emax [5] | combination Emax [6] | combination Emax (NB69 (Neuroblastoma)) | combination Emax [7] | combination Emax (YH-13 (Glioblastoma)) | combination Emax [8] | combination Emax (D-263MG (Glioblastoma)) | combination Emax (PWR-1E (Non-Cancerous)) | combination Emax [9] | combination Emax [10] | combination Emax [11] | combination Emax [12] | combination Emax [13] | combination Emax [14] | combination Emax [15]
CN(C)CCCOc1ccc(-c2ccc3ncc4c(c3c2)n(C2CCOCC2)c(=O)n4C)cn1 [AZD0156] + O=C(c1cc(Cc2n[nH]c(=O)c3ccccc23)ccc1F)N1CCN(C(=O)C2CC2)CC1 [Olaparib] (first compound max 3 µM, partner max 3 µM) | 0.226 | 0.277 | 0.319 | 0.473 | 0.362 | 0.421 | 0.102 | 0.474 | 0.732 | 0.453 | 0.467 | 0.196 | 0.684 | 0.32 | 0.277 | 0.122 | 0.239 | 0.465 | 0.284 | 0.533
CN(C)CCCOc1ccc(-c2ccc3ncc4c(c3c2)n(C2CCOCC2)c(=O)n4C)cn1 [AZD0156] + CCN(CCO)CCCOc1ccc2c(Nc3cc(CC(=O)Nc4cccc(F)c4)[nH]n3)ncnc2c1 [AZD2811] (first compound max 1 µM, 7x7, partner max 1 µM) | 0.376 | 0.201 | 0.305 | 0.302 | 0.147 | 0.407 | 0.221 | 0.588 | 0.999 | 0.348 | 0.243 | 0.329 | 0.626 | 0.0564 | 0.146 | 0.0853 | 0.21 | 0.127 | 0.245 | 0.383
Cn1cnc2c(F)c(Nc3ccc(Br)cc3Cl)c(C(=O)NOCCO)cc21 [Selumetinib] + C[C@@H]1COCCN1C2=NC(=NC(=C2)C3(CC3)[S@](=N)(=O)C)C4=C5C=CNC5=NC=C4 [AZD6738] (first compound max 10 µM, 7x7, partner max 10 µM) | 0.686 | 0.435 | 0.371 | 0.667 | 0.908 | 0.628 | 0.464 | 0.999 | 1 | 0.51 | 0.929 | 0.359 | 0.935 | 0.516 | 0.764 | 0.569 | 1 | 0.869 | 0.714 | 0.138
C=CCn1c(=O)c2cnc(Nc3ccc(N4CCN(C)CC4)cc3)nc2n1-c1cccc(C(C)(C)O)n1 [AZD1775] + C1CN(CCC1(C(=O)N[C@@H](CCO)C2=CC=C(C=C2)Cl)N)C3=NC=NC4=C3C=CN4 [Capivasertib] (first compound max 3 µM, partner max 3 µM) | 0.585 | 0.676 | 0.86 | 0.503 | 0.97 | 0.586 | 0.638 | 0.942 | 1 | 0.519 | 0.947 | 0.696 | 0.988 | 0.571 | 0.985 | 0.428 | 0.938 | 0.921 | 0.645 | 0.71
CCc1c2c(nc3ccc(O)cc13)-c1cc3c(c(=O)n1C2)COC(=O)[C@]3(O)CC [SN-38] + CN(C)CCCOc1ccc(-c2ccc3ncc4c(c3c2)n(C2CCOCC2)c(=O)n4C)cn1 [AZD0156] (first compound max 0.3 µM, 7x7, partner max 1 µM) | 0.945 | 0.709 | 0.801 | 0.781 | 0.932 | 0.988 | 0.423 | 0.995 | 0.995 | 0.509 | 0.924 | 0.722 | 0.946 | 0.462 | 0.99 | 0.664 | 0.945 | 0.914 | 0.875 | 0.482
CCN(CCO)CCCOc1ccc2c(Nc3cc(CC(=O)Nc4cccc(F)c4)[nH]n3)ncnc2c1 [AZD2811] + C=CCn1c(=O)c2cnc(Nc3ccc(N4CCN(C)CC4)cc3)nc2n1-c1cccc(C(C)(C)O)n1 [AZD1775] (first compound max 1 µM, partner max 1 µM) | 0.727 | 0.296 | 0.522 | 0.279 | 0.771 | 0.463 | 0.62 | 0.885 | 1 | 0.423 | 0.911 | 0.51 | 0.87 | 0.445 | 0.329 | 0.161 | 0.89 | 0.771 | 0.356 | 0.467
COc1nnc2ccc(N3CCC(c4ccc(OCCN5CCN(C)C(=O)[C@H]5C)cc4)CC3)nn12 [AZD5153] + Cn1cnc2c(F)c(Nc3ccc(Br)cc3Cl)c(C(=O)NOCCO)cc21 [Selumetinib] (first compound max 1 µM, 7x7, partner max 10 µM) | 0.859 | 0.584 | 0.362 | 0.444 | 0.883 | 0.593 | 0.518 | 1 | 1 | 0.546 | 0.996 | 0.441 | 0.777 | 0.548 | 0.929 | 0.668 | 1 | 0.699 | 0.481 | 0.28
CC(=O)c1c(C)c2cnc(Nc3ccc(N4CCNCC4)cn3)nc2n(C2CCCC2)c1=O [Palbociclib] + Cn1cnc2c(F)c(Nc3ccc(Br)cc3Cl)c(C(=O)NOCCO)cc21 [Selumetinib] (first compound max 10 µM, 7x7, partner max 10 µM) | 0.604 | 0.232 | 0.277 | 0.318 | 0.349 | 0.444 | 0.226 | 0.988 | 0.952 | 0.387 | 0.594 | 0.265 | 0.142 | 0.404 | 0.0587 | 0.471 | 1 | 0.458 | 0.158 | 0.162
CCc1c2c(nc3ccc(O)cc13)-c1cc3c(c(=O)n1C2)COC(=O)[C@]3(O)CC [SN-38] + O=C(c1cc(Cc2n[nH]c(=O)c3ccccc23)ccc1F)N1CCN(C(=O)C2CC2)CC1 [Olaparib] (first compound max 0.3 µM, 7x7, partner max 10 µM) | 0.935 |  | 0.775 | 0.821 | 0.928 | 0.962 | 0.636 | 0.967 | 0.99 | 0.58 | 0.896 | 0.703 |  | 0.465 | 1 | 0.672 | 0.983 | 0.868 | 0.818 | 0.566
CS(=O)(=O)CCNCc1ccc(-c2ccc3ncnc(Nc4ccc(OCc5cccc(F)c5)c(Cl)c4)c3c2)o1 [Lapatinib] + NC1(c2ccc(-c3nc4ccn5c(=O)[nH]nc5c4cc3-c3ccccc3)cc2)CCC1 [MK-2206] (first compound max 10 µM, 7x7, partner max 10 µM) | 0.929 |  | 0.658 | 0.925 |  | 0.902 | 0.583 | 0.941 | 0.973 | 0.909 | 0.926 | 0.492 | 0.836 | 0.505 |  |  |  | 0.971 |  | 0.792
Cc1c2c(nn1C)CSCc1cc(n(C)n1)CSc1cc(c3ccccc3c1)OCCCc1c(C(=O)O)n(C)c3c-2c(Cl)ccc13 [AZD5991] + CN(C)CCCOc1ccc(-c2ccc3ncc4c(c3c2)n(C2CCOCC2)c(=O)n4C)cn1 [AZD0156] (first compound max 1 µM, 7x7, partner max 1 µM) | 0.289 | 0.269 |  | 0.291 | 1 | 0.828 | 0.334 | 0.666 | 0.999 | 0.254 | 0.978 | 0.711 | 0.29 | 0.24 | 0.291 | 0.473 | 0.797 | 0.256 | 0.243 | 0.494
Cc1c2c(nn1C)CSCc1cc(n(C)n1)CSc1cc(c3ccccc3c1)OCCCc1c(C(=O)O)n(C)c3c-2c(Cl)ccc13 [AZD5991] + Nc1ccn([C@@H]2O[C@H](CO)[C@@H](O)C2(F)F)c(=O)n1 [Gemcitabine] (first compound max 1 µM, 7x7, partner max 0.3 µM) | 0.85 |  | 0.679 | 0.672 |  | 0.981 | 0.395 | 0.99 | 1 | 0.574 | 0.979 | 0.894 |  | 0.548 |  |  |  | 0.68 |  | 0.573
C[C@@H](Oc1cc(-c2cnn(C3CCNCC3)c2)cnc1N)c1c(Cl)ccc(F)c1Cl [Crizotinib] + CC1=C(C(=CC=C1)Cl)NC(=O)C2=CN=C(S2)NC3=CC(=NC(=N3)C)N4CCN(CC4)CCO [Dasatinib] (first compound max 10 µM, 7x7, partner max 2 µM) | 0.608 |  | 0.365 | 0.738 |  | 0.736 | 0.679 | 0.951 | 1 | 0.978 | 0.888 | 0.843 |  | 0.529 |  |  |  | 0.952 |  | 0.636
O=C(c1cc(Cc2n[nH]c(=O)c3ccccc23)ccc1F)N1CCN(C(=O)C2CC2)CC1 [Olaparib] + Cc1c2c(nn1C)CSCc1cc(n(C)n1)CSc1cc(c3ccccc3c1)OCCCc1c(C(=O)O)n(C)c3c-2c(Cl)ccc13 [AZD5991] (first compound max 10 µM, 7x7, partner max 1 µM) | 0.161 |  | 0.365 | 0.193 |  | 0.763 | 0.217 | 0.886 | 1 | 0.187 | 0.931 | 0.562 |  | 0.0799 |  |  |  | 0.212 |  | 0.272
